In patent publication US9322895B2, “Method of determining metabolic function using magnetic resonance spectroscopic imaging” (Greater Glasgow Health Board, priority 2009, dated 2016):

Key:
[1] = standard temperature and pressure; cited from earlier work
[2] = tested on: anaesthetised rats following a middle cerebral artery occlusion (MCAO); experiment: Localised 1H spectroscopy (PRESS) with oxygen challenge in rats following MCAO; assay type: in vivo; details: rat MCAO
Protocol: In-vivo MRI experiments were performed on anaesthetised rats following a middle cerebral artery occlusion (MCAO). The measurements included RARE T2 imaging, diffusion weighted imaging (DWI), perfusion weighted imaging (PWI), 1H localised spectroscopy and lactate difference imaging (LDI).
The first experiment used a standard localised spectroscopy sequence (PRESS) to acquire 1H spectra. One voxel was placed in the presumed penumbral region (as indicated by DWI/PWI mismatch), a second voxel was placed in the normal contralateral hemisphere (see FIG. 1)

Structure (SMILES)	oxygen carried by 100 ml [1] [mL]	lactate peak in the penumbra on returning to 100% inhaled air ([2]; after the oxygen challenge)	lactate peak in the penumbral region ([2]; challenge of 100% inhaled oxygen, voxel in DWI/PWI mismatch)	lactate peak in the contralateral region ([2]; challenge of 100% inhaled oxygen, voxel in normal contralateral hemisphere)
FC1(F)C(F)(F)C(F)(F)C2(F)C(F)(F)C(F)(F)C(F)(F)C(F)(F)C2(F)C1(F)F (stereo not shown) [Perflorodecalin]	49	–	–	–
O=O [oxygen]	–	increased back to previous level	significant decrease	remained unchanged
